# Earlier results as cited in patent US20090226374A1, “ANAPHYLATOXINS FOR DETECTING CLINICAL CONDITIONS” (Health Aide, Inc., priority 2003, published 2009).
# Like-named read-outs stand apart in the source and are kept apart here. Marks after values point to notes of the source that are not given here. Where no end group is shown, it is not given here. [ ]: non-standard residue; d: D form. The star is where a group is joined. Fmoc = O=C(OCC1c2ccccc2-c2ccccc21)*; Ahx = NCCCCCC(=O)O
# Assays:
# guinea pig ileum = settings: for Relative Act. %: natural human C3a (1-77) = 100; for Relative Act. % / Relative molar activity (%): guinea pig ileum contraction; for Relative molar activity (%): pentapeptide L-G-L-A-R (C3a 73-77) = 100
# [1] = assay not given
# [2] = natural factor C3a (1-77) = 100
# [3] = natural C3a of each species; human C3a = 100
# guinea pig platelet = guinea pig platelet aggregation
substance,measurement,setting,value
A-G-L-A-R [Peptide 7],Relative Act. %,guinea pig ileum,<0.001%
same,Relative molar activity (%),guinea pig ileum,20%
Ahx-Y-A-S-K-L-G-L-A-R ([Ahx]YASKLGLAR) [Peptide C2],"Potency relative to C3a (57-77), %",[1]; Table 1E,13%
Ahx-Y-S-H-K-G-M-L-L-G-R ([Ahx]YSHKGMLLGR) [Peptide C8],"Potency relative to C3a (57-77), %",[1]; Table 1E,0.4%
"C3a (1-77): Natural human C3a anaphylatoxin (1-77), the natural factor",Relative Act. %,guinea pig ileum,100%
same,Relative molar activity (%),[2],100%
same,Potency %,[3],100%
F-G-L-A-R [Peptide 3],Relative Act. %,guinea pig ileum,1.1%
same,Relative molar activity (%),guinea pig ileum,140%
Fmoc-A-A-A-R-L-G-L-A-R (Fmoc-AAARLGLAR) [Peptide D1],"Potency relative to C3a (57-77), %",[1]; Table 1F,66%
Fmoc-A-A-R-A-L-G-L-A-R (Fmoc-AARALGLAR) [Peptide D2],"Potency relative to C3a (57-77), %",[1]; Table 1F,41%
Fmoc-A-R-A-A-L-G-L-A-R (Fmoc-ARAALGLAR) [Peptide D3],"Potency relative to C3a (57-77), %",[1]; Table 1F,37%
Fmoc-Ahx-Y-A-S-K-L-G-L-A-R ({Fmoc-Ahx}-YASKLGLAR) [Peptide C3],"Potency relative to C3a (57-77), %",[1]; Table 1E,22%
Fmoc-Ahx-Y-R-A-S-K-L-G-L-A-R ({Fmoc-Ahx}-YRASKLGLAR) [Peptide C5],"Potency relative to C3a (57-77), %",[1]; Table 1E,112%
same,"Potency relative to C3a (57-77), %",[1]; Table 1F,112%
Fmoc-Ahx-Y-S-H-K-G-M-L-L-G-R ({Fmoc-Ahx}-YSHKGMLLGR) [Peptide C9],"Potency relative to C3a (57-77), %",[1]; Table 1E,0.8%
Fmoc-G-G-Y-R-A-S-K-L-G-L-A-R (Fmoc-GGYRASKLGLAR) [Peptide D8],"Potency relative to C3a (57-77), %",[1]; Table 1F,227%
Fmoc-I-R-R--R-Y-A-S-K-L-G-L-A-R (Fmoc-IRRRYASKLGLAR) [Peptide B18],"Potency relative to C3a (57-77), %",guinea pig platelet,50%
Fmoc-K-K-Y-R-A-S-K-L-G-L-A-R (Fmoc-KKYRASKLGLAR) [Peptide D7],"Potency relative to C3a (57-77), %",[1]; Table 1F,279%
Fmoc-R-A-A-A-L-G-L-A-R (Fmoc-RAAALGLAR) [Peptide D4],"Potency relative to C3a (57-77), %",[1]; Table 1F,79%
Fmoc-R-A-A-R-L-G-L-A-R (Fmoc-RAARLGLAR) [Peptide D5],"Potency relative to C3a (57-77), %",[1]; Table 1F,61%
Fmoc-R-R-R-Y-A-S-K-L-G-L-A-R (Fmoc-RRRYASKLGLAR) [Peptide B17],"Potency relative to C3a (57-77), %",guinea pig platelet,261%
Fmoc-R-R-Y-R-A-S-K-L-G-L-A-R (Fmoc-RRYRASKLGLAR) [Peptide D6],"Potency relative to C3a (57-77), %",[1]; Table 1F,176%
Fmoc-W-W-R-R-R-Y-A-S-K-L-G-L-A-R (Fmoc-WWRRRYASKLGLAR) [Peptide B19],"Potency relative to C3a (57-77), %",guinea pig platelet,53%
Fmoc-Y-R-A-S-K-L-G-L-A-R (Fmoc-YRASKLGLAR) [Peptide B4],"Potency relative to C3a (57-77), %",guinea pig platelet,121%
FmocW-R-R-R-Y-A-S-K-L-G-L-A-R (Fmoc-WRRRYASKLGLAR) [Peptide B20],"Potency relative to C3a (57-77), %",guinea pig platelet,70%
G-I-G-G-Y-R-K-S-A-L-G-L-A-R (GIGGYRKSALGLAR) [Peptide B10],"Potency relative to C3a (57-77), %",guinea pig platelet,41%
H-Ala-Ser-His-Leu-Gly-Leu-Ala-Arg-OH (H-ASHLGLAR-OH) [C3a-(70-77)],Relative molar activity (%),[2],2.0%
H-Arg-Gln-His-Ala-Arg-Ala-Ser-His-Leu-Gly-Leu-Ala-Arg-OH (H-RQHARASHLGLAR-OH) [C3a-(65-77)],Relative molar activity (%),[2],2.5%
H-Cys-Asn-Tyr-Ile-Thr-Glu-Leu-Arg-Arg-Gln-His-Ala-Arg-Ala-Ser-His-Leu-Gly-Leu-Ala-Arg-OH (H-CNYITELRRQHARASHLGLAR-OH) [C3a-(57-77)],Relative molar activity (%),[2],>20* %
H-Trp-Trp-Gly-Lys-Lys-Tyr-Arg-Ala-Ser-Lys-Leu-Gly-Leu-Ala-Arg-OH (H-WWGKKYRASKLGLAR-OH) [Peptide E7],Relative molar activity (%),[2],>100** %
I-G-G-G-Y-R-K-S-A-L-G-L-A-R (IGGGYRKSALGLAR) [Peptide B11],"Potency relative to C3a (57-77), %",guinea pig platelet,16%
I-G-L-A-R [Peptide 4],Relative Act. %,guinea pig ileum,0.8%
same,Relative molar activity (%),guinea pig ileum,100%
I-I-G-G-Y-R-A-S-K-L-G-L-A-R (IIGGYRASKLGLAR) [Peptide B8],"Potency relative to C3a (57-77), %",guinea pig platelet,50%
I-I-G-G-Y-R-K-S-A-L-G-L-A-R (IIGGYRKSALGLAR) [Peptide B9],"Potency relative to C3a (57-77), %",guinea pig platelet,37%
I-R-R-R-Y-A-S-K-L-G-L-A-R (IRRRYASKLGLAR) [Peptide B15],"Potency relative to C3a (57-77), %",guinea pig platelet,99%
L-A-L-A-R [Peptide 8],Relative Act. %,guinea pig ileum,0.59%
same,Relative molar activity (%),guinea pig ileum,270%
L-E-L-A-R [Peptide 13],Relative Act. %,guinea pig ileum,2.0%
same,Relative molar activity (%),guinea pig ileum,<2.4%
L-G-A-A-R [Peptide Code 12],Relative molar activity (%),guinea pig ileum,<1.4%
L-G-F-A-R [Peptide 16],Relative Act. %,guinea pig ileum,1.0%
same,Relative molar activity (%),guinea pig ileum,<1.5%
L-G-I-A-R [Peptide 14],Relative Act. %,guinea pig ileum,0.8%
same,Relative molar activity (%),guinea pig ileum,10%
L-G-L-A-R (LGLAR) [Peptide Code 5],"Potency relative to C3a (57-77), %",guinea pig ileum; asterisk: based on guinea pig ileal assay,0.2* %
same,Relative Act. %,guinea pig ileum,5.9%
same,Relative molar activity (%),guinea pig ileum,100%
L-G-L-E-R [Peptide 23],Relative molar activity (%),guinea pig ileum,<2.6%
L-G-L-G-R [Peptide 22],Relative molar activity (%),guinea pig ileum,<5.8%
L-G-L-P-R [Peptide 19],Relative molar activity (%),guinea pig ileum,3.5%
L-G-L-Q-R [Peptide 20],Relative molar activity (%),guinea pig ileum,2.8%
L-G-L-S-R [Peptide 21],Relative molar activity (%),guinea pig ileum,0.7%
L-G-M-A-R [Peptide 15],Relative Act. %,guinea pig ileum,0.25%
same,Relative molar activity (%),guinea pig ileum,2.1%
L-G-V-A-R [Peptide 17],Relative Act. %,guinea pig ileum,<0.005%
same,Relative molar activity (%),guinea pig ileum,<1.1%
L-L-L-A-R [Peptide 11],Relative Act. %,guinea pig ileum,0.023%
same,Relative molar activity (%),guinea pig ileum,10%
L-Q-L-A-R [Peptide 12],Relative Act. %,guinea pig ileum,<0.003%
same,Relative molar activity (%),guinea pig ileum,<5.5%
L-S-L-A-R [Peptide 9],Relative Act. %,guinea pig ileum,2.0%
same,Relative molar activity (%),guinea pig ileum,55%
L-V-L-A-R [Peptide 10],Relative Act. %,guinea pig ileum,1.2%
same,Relative molar activity (%),guinea pig ileum,10%
M-G-L-A-R [Peptide 6],Relative Act. %,guinea pig ileum,0.005%
same,Relative molar activity (%),guinea pig ileum,50%
R-R-R-Y-A-S-K-L-G-L-A-R (RRRYASKLGLAR) [Peptide B13],"Potency relative to C3a (57-77), %",guinea pig platelet,50%
R-R-Y-A-S-K-L-G-L-A-R (RRYASKLGLAR) [Peptide B12],"Potency relative to C3a (57-77), %",guinea pig platelet,18%
R-Y-A-S-K-L-G-L-A-R (RYASKLGLAR) [Peptide B2],"Potency relative to C3a (57-77), %",guinea pig platelet,7.0%
V-G-L-A-R [Peptide 5],Relative Act. %,guinea pig ileum,0.2%
same,Relative molar activity (%),guinea pig ileum,90%
W-Ahx-Y-A-S-K-L-G-L-A-R (W[Ahx]YASKLGLAR) [Peptide C4],"Potency relative to C3a (57-77), %",[1]; Table 1E,22%
W-Ahx-Y-S-H-K-G-M-L-L-G-R (W[Ahx]YSHKGMLLGR) [Peptide C10],"Potency relative to C3a (57-77), %",[1]; Table 1E,1.2%
W-G-G-Y-R-A-S-K-L-G-L-A-R (WGGYRASKLGLAR) [Peptide B5],"Potency relative to C3a (57-77), %",guinea pig platelet,99%
W-I-G-G-Y-R-A-S-K-L-G-L-A-R (WIGGYRASKLGLAR) [Peptide B7],"Potency relative to C3a (57-77), %",guinea pig platelet,118%
W-R-R-R-Y-A-S-K-L-G-L-A-R (WRRRYASKLGLAR) [Peptide B14],"Potency relative to C3a (57-77), %",guinea pig platelet,66%
W-W-Ahx-Y-R-A-S-K-L-G-L-A-R (WW[Ahx]YRASKLGLAR) [Peptide C6],"Potency relative to C3a (57-77), %",[1]; Table 1E,603%
W-W-G-G-Y-R-A-S-A-L-G-L-A-R (WWGGYRASALGLAR) [Peptide D10],"Potency relative to C3a (57-77), %",[1]; Table 1F,181%
W-W-G-G-Y-R-A-S-K-L-G-L-A-R (WWGGYRASKLGLAR) [Peptide B6],"Potency relative to C3a (57-77), %",guinea pig platelet,259%
W-W-G-G-Y-R-K-S-A-L-G-L-A-R (WWGGYRKSALGLAR) [Peptide D11],"Potency relative to C3a (57-77), %",[1]; Table 1F,259%
W-W-G-G-Y-R-P-S-A-L-G-L-A-R (WWGGYRPSALGLAR) [Peptide D12],"Potency relative to C3a (57-77), %",[1]; Table 1F,252%
W-W-G-G-Y-R-a-S-A-L-G-L-A-R (WWGGYR[dA]SALGLAR) [Peptide D13],"Potency relative to C3a (57-77), %",[1]; Table 1F,118%
W-W-R-R-R-Y-A-S-K-L-G-L-A-R (WWRRRYASKLGLAR) [Peptide B16],"Potency relative to C3a (57-77), %",guinea pig platelet,296%
Y-A-S-K-L-G-L-A-R (YASKLGLAR) [Peptide C1],"Potency relative to C3a (57-77), %",[1]; Table 1E,3.4%
Y-G-L-A-R [Peptide 2],Relative Act. %,guinea pig ileum,2.3%
same,Relative molar activity (%),guinea pig ileum,160%
Y-R-A-S-K-L-G-L-A-R (YRASKLGLAR) [Peptide B3],"Potency relative to C3a (57-77), %",guinea pig platelet,55%
Y-S-H-K-G-M-L-L-G-R (YSHKGMLLGR) [Peptide C7],"Potency relative to C3a (57-77), %",[1]; Table 1E,0.5%
